From patent publication US9833393B2, “Method and compositions for treating skin” (ELC Management LLC, priority 2015, dated 2017)

Test system: per1 gene expression
Experiment: per1 gene expression activity, per1-luciferase reporter plasmid in transfected keratinocytes
Type: cell-based, human
Details: NHEK, 16 hours incubation, luminescence
Protocol: Normal human epidermal keratinocytes (NHEK) were diluted in EpiLife Media MEP1500CA with supplement S001-5 added (Gibco, Cascade Biologics, Invitrogen) to form a concentration of 3×10^4 and plated onto a black walled 96 well microtiter plate by adding 100 μl in each well. The plate was incubated for 3 hours at 37° C. in 5% CO2. The media was removed and remaining adhered cells rinsed with EpiLife Media MEP1500CA, supplement free. A plasmid solution was prepared by diluting Tris-EDTA pH 8.0 buffer with plasmid pGL4.11 (DNA 2.0, Carlsbad, Calif.) to form a 1 mg/ml solution. This plasmid contained a per1 gene sequence and a luciferase reporter gene sequence. A transfection mixture was prepared by diluting EpiLife Media MEP1500CA, supplement free, to form a solution with 0.31 μg/ml of plasmid (obtained by adding appropriate amount of plasmid solution prepared above), 1.28% Plus™ Reagent (Catalog No. 11514-015, Invitrogen, Carlsbad, Calif.), and 3.22% Lipofectamine™ Transfection Reagent (Catalog No. 18324-012, Invitrogen, Carlsbad, Calif.). Transfection mixture, […] to each well and the plate incubated for 4 hours at 37° C. in 5% CO2. Then 80 μl of EpiLife Media MEP1500CA with supplement S001-5 was added to the well containing the control (media alone), the transfection mixture control (transfection mixture without any active ingredient). Test wells and transfection control wells. To the test wells 80 μl of test material solution (test material diluted in EpiLife Media MEP1500CA with supplement S001-5) was added. The wells were incubated for 16 hours at 37° C. in 5% CO2. Immediately prior to reading, Bright-Glo™ (Pro-Mega, Madison Wis.) was added to each well plate in the same volume as is currently in the well (e.g. a 1:1 dilution). Luminescence was measured in an LMax™ Microplate Luminometer (Molecular Devices, Sunnyvale, Calif.).

| increase in per1 (0.01% concentration) [%] | increase in per1 (0.05% concentration) [%] | increase in per1 (0.1% concentration) [%] | Molecule | increase in per1 (100 uM concentration) [%] |
| --- | --- | --- | --- | --- |
| 0 | 0 | 0 | alpha bisabolol | – |
| – | – | – | COc1ccc2[nH]cc(CCNC(C)=O)c2c1 [melatonin] | 39.2 |
